This is an account of results in patent US5604256A, “Octahydronaphthalene oxime derivatives for cholesterol biosynthesis inhibition” (Sankyo Company, Limited, priority 1992, dated 1997).

Counter-ions that a name gives are not always drawn.

As a reminder, the IC50 is the concentration at which inhibition is half-maximal. Read a low IC50 as higher potency.

This experiment deals with T1, HMG-CoA reductase (Rattus norvegicus, UniProt P51639).
T1 sequence (P51639 1-887): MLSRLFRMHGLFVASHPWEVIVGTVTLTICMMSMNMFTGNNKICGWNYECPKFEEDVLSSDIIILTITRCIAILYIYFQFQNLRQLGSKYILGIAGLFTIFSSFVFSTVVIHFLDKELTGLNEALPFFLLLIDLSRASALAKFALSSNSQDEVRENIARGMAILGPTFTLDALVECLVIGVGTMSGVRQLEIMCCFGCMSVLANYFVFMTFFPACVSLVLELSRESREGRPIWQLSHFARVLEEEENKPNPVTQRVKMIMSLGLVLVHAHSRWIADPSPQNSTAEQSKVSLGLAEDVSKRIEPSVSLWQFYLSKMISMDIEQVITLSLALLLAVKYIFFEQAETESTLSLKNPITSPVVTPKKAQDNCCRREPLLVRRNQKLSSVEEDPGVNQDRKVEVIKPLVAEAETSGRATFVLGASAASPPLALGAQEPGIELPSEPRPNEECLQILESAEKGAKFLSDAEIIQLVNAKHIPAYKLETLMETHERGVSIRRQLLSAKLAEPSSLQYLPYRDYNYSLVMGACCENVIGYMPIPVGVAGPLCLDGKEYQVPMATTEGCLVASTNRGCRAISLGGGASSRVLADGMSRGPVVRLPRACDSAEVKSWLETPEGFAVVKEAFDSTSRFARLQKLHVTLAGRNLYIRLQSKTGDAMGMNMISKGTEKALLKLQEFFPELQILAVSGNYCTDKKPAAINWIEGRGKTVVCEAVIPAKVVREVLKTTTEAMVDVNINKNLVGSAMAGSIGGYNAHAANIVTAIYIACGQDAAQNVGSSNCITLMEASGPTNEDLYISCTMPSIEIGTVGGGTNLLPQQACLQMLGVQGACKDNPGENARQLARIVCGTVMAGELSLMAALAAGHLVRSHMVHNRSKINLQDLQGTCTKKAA
The experiment is described as follows: biochemical. The settings on record: Table 3.
From the text: The determination of the inhibitory activity of the compounds was made using the method of Kuroda et al ["Biochimica et Biophysica Acta" Vol. 486, pp. 70-81 (1977)] which is a modification of the known method of D. J. Shapiro et al ["Analytical Biochemistry" Vol. 31, pp. 383-390 (1969)] with some improvements.
`CCC(C)C(=O)OC1CCC(=NOCc2cnoc2)C2=CC(=O)C(C)C(CCC(O)CC(O)CC(=O)O)C21` (stereo not drawn) [Na salt of Compound of Preparation 9]: the midpoint of inhibition, the IC50, lay at 22.8 nM. `CCC(C)C(=O)OC1CCC(=NOCc2ccccc2)C2=CC(=O)C(C)C(CCC(O)CC(O)CC(=O)O)C21` (stereo not drawn) [Na salt of Compound of Preparation 1] had an IC50 of 18.5 nM. For `CCC(C)C(=O)OC1CCC(=NOCc2c(C)noc2C)C2=CC(=O)C(C)C(CCC(=O)CC(O)CC(=O)O)C21` (stereo not drawn), the midpoint of inhibition, the IC50, lay at 16.3 nM. With `CCC(C)C(=O)OC1CCC(=NOCc2ccccc2)C2=CC(=O)C(C)C(CCC(=O)CC(O)CC(=O)O)C21` (stereo not drawn), the IC50 stood at 16.3 nM.

`CCC(C)C(=O)OC1CCC(=NOCc2cnoc2)C2=CC(=O)C(C)C(CCC(=O)CC(O)CC(=O)O)C21` (stereo not drawn) showed an IC50 of 20.2 nM.

Consider `CCC(C)C(=O)OC1CCC(=NOCc2c(C)noc2C)C2=CC(=O)C(C)C(CCC(O)CC(O)CC(=O)O)C21` (stereo not drawn) [Na salt of Compound of Preparation 11], for which the IC50 came to 17.3 nM.
